Our source for the EC50 and IC50 values is article PMC10424705, “Physiological insight into the conserved properties of Caenorhabditis elegans acid‐sensing degenerin/epithelial sodium channels” (The Journal of Physiology, 2022).

Common to all, as to assay: two-electrode voltage clamp, Xenopus oocytes
Holding throughout (assay type): cell-based

The target of assay [1] is T1, UNC-105h (Caenorhabditis elegans, UniProt Q09274).
T1 construct: isoform h cDNA in KSM vector, Xenopus laevis oocytes, homomeric channel (trimer by known biology)
T1 sequence (Q09274 1-887): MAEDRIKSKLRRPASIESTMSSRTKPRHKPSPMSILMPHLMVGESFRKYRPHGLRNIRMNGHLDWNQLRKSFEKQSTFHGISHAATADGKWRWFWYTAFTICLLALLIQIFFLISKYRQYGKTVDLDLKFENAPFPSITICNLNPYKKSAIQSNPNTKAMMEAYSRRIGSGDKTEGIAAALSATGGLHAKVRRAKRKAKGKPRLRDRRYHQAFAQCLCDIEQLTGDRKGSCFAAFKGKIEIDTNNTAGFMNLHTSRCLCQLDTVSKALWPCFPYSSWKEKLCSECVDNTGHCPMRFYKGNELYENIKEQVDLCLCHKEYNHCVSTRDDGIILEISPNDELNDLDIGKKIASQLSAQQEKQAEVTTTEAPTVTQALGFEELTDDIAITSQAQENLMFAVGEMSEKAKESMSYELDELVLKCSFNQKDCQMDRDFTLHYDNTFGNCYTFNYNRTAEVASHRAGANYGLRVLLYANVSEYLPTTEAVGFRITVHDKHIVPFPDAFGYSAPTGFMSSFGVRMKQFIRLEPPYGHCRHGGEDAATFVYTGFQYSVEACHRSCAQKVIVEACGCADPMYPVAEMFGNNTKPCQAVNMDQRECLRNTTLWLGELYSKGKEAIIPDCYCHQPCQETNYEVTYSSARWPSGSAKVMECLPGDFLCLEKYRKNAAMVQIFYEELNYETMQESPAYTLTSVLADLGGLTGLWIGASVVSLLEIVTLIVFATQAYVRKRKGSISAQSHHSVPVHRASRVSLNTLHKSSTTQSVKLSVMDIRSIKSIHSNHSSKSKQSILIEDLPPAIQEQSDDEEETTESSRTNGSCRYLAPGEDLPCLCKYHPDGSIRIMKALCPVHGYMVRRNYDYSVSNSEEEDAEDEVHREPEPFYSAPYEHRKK
The note with it: pH 7.4, -60 mV, ND96, room temperature; second, current-restoring phase of biphasic response; text b54 prints 6.7 µM instead.

In assay [2] the target is T1, UNC-105h. The settings on record: pH 7.4, -60 mV, ND96, room temperature; paradoxical biphasic response, low-concentration inhibition.
The target in the next assay is T2, ASIC-1 (Caenorhabditis elegans, UniProt O01635).
T2 construct: full-length cDNA in KSM vector, Xenopus laevis oocytes, homomeric channel (trimer by known biology)
T2 sequence (O01635 1-823): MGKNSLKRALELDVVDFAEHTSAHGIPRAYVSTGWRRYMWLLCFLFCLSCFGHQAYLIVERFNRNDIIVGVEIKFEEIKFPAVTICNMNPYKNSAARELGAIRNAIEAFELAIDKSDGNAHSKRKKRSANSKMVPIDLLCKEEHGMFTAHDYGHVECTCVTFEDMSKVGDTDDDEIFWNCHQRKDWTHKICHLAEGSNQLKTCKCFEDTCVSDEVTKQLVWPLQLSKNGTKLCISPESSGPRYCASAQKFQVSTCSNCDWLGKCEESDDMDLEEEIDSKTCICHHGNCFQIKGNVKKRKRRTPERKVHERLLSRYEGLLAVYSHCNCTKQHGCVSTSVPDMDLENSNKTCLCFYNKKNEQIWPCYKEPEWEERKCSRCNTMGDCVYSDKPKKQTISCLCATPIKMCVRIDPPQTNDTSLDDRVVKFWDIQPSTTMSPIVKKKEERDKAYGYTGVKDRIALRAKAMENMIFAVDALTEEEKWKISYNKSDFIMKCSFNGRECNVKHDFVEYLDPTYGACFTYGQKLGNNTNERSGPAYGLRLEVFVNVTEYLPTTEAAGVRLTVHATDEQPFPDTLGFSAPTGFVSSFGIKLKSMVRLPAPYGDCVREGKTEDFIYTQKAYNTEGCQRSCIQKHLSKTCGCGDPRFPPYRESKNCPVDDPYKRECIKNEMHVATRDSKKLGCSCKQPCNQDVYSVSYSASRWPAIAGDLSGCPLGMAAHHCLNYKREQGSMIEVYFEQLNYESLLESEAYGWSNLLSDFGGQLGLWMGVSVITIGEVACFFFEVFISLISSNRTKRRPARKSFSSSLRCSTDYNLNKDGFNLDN

pEC50, pIC50: −log10 of the molar value.

Consider `N=C(N)NC(=O)c1nc(Cl)c(N)nc1N` [amiloride], for which the pEC50 at UNC-105h [1] was 5.23. Also, the pIC50 at UNC-105h [2] was 6.12; against ASIC-1, 3.97.
